From ChEMBL document CHEMBL1201862, “PubChem BioAssay data set” (2004)
Calls of active or inactive are those of the source.

Experiments:
[1] = cytotoxicity in HEK-293T cells, dose response, cytotoxicity control for TCR NF-kB inhibitor project, luminescence, T-cell screen hits (AID 489026); assay type: functional, cell-based;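 note: cells exposed to compound about 14 hours before the viability readout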
[2] = biological target: Peroxisome proliferator-activated receptor gamma/Nuclear receptor coactivator 1 (Homo sapiens, UniProt P37231); assay: (§1) TR-FRET dose response biochemical High Throughput Screening assay for agonists of the steroid receptor coactivator 1 (SRC-1) recruitment by the peroxisome proliferator-activated receptor gamma (PPAR gamma): non-selective agonists. [Related pubchem assays (depositor defined):AID1300, AID1808, AID504735, AID631]; assay type: protein assay
[3] = biological target: Peroxisome proliferator-activated receptor gamma/Nuclear receptor coactivator 3 (Homo sapiens, UniProt P37231); assay: as §1, with “3 (SRC-3)” for “1 (SRC-1)”, “assays: 1301 (Confirmation screen.), 1048 (Primary screen.)]” for “assays (depositor defined):AID1300, AID1808, AID504735, AID631]”; assay type: functional
[4] = biological target: Peroxisome proliferator-activated receptor gamma/Nuclear receptor coactivator 2 (Homo sapiens, UniProt P37231); assay: TR-FRET dose response biochemical High Throughput Screening assay for agonists of the steroid receptor coactivator 2 (SRC-2) recruitment by the peroxisome proliferator-activated receptor gamma (PPAR gamma): non-selective agonists. [Related pubchem assays: 1297, 1032 ]; assay type: functional
[5] = NIH-3T3 fibroblast cytotoxicity, dose response, cytotoxicity control, cell-based, fluorescence, Alamar Blue, secondary assay (AID 2327); assay type: functional;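 note: NIH-3T3 mouse fibroblasts cultured with fluconazole at 8 µg/mL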
[6] = C. albicans growth with fluconazole, confirmation, fluorescence, retest (AID 2467); assay type: functional, cell-based
[7] = inhibitors of firefly luciferase expression or activity, dose response, H4 neuroglioma cells, luminescence (AID 1990); assay type: functional, cell-based
BJ [8] = assay: cytotoxicity toward BJ-TERT fibroblasts, dose response, cell-based, RAS-independent, luminescence (AID 1933); assay type: functional; details: Homo sapiens
[9] = Luminescence Cell-Based Dose Response HTS to Identify Inhibitors of 5'UTR Stem-Loop Driven Prion Protein mRNA Translation in H4 Neuroglioblastoma Cells. [Related pubchem assays: 1827 (Project Summary), 1813 (Primary HTS)]; assay type: functional
[10] = inhibitors of SNCA 5'UTR-driven reporter translation, confirmation, H4 neuroglioma cells, luminescence (AID 1988); assay type: functional, cell-based
BJ [11] = assay: cells; assay type: functional, cell-based; details: Homo sapiens
BJ [12] = assay: cytotoxicity toward BJ-TERT-LT-ST fibroblasts, dose response, cell-based, RAS-independent, luminescence (AID 1935); assay type: functional; details: Homo sapiens;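 note: BJ fibroblasts immortalized with TERT plus LT and ST oncogenes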
[13] = cytotoxicity toward DRD oncogenic fibroblasts, dose response, cell-based, non-viral oncogenic, luminescence (AID 1934); assay type: functional; details: Homo sapiens
[14] = biological target: T1, Short transient receptor potential channel 4 (Mus musculus, UniProt Q9QUQ5); assay: mouse TRPC4 channel inhibitors, dose response, cell-based, HEK293 TRPC4/mu-opioid, Fluo-4 calcium (AID 434942); assay type: functional;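 note: potency of inhibitors blocking the TRPC4 calcium response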
T1 sequence (Q9QUQ5 whole entry): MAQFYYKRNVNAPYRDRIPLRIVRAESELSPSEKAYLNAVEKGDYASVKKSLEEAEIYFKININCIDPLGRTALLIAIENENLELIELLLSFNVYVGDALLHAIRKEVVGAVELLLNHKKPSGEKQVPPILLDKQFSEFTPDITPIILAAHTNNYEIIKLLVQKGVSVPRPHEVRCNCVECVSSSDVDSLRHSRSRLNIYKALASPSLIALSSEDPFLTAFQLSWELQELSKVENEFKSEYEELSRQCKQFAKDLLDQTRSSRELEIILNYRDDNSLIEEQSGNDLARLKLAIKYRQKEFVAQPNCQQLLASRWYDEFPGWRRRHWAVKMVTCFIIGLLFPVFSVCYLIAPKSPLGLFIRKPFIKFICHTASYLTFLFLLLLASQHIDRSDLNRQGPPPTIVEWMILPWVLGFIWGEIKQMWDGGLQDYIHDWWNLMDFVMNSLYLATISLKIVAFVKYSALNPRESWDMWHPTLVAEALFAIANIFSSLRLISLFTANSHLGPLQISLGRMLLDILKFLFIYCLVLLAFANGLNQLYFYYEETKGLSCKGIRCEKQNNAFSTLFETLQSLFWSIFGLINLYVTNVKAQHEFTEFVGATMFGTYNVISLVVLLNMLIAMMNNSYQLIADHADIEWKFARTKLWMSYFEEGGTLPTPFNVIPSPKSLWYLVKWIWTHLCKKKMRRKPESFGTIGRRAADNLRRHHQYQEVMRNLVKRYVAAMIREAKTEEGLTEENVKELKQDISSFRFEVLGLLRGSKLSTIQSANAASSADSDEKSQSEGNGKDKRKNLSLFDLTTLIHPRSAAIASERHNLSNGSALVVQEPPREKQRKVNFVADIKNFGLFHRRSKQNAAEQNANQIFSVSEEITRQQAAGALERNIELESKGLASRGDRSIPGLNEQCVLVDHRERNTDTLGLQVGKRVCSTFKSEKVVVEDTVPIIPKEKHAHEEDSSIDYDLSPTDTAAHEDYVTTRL

[15] = biological target: T1, Short transient receptor potential channel 4; assay: mouse TRPC4 channel activators, dose response, cell-based, HEK293 TRPC4/mu-opioid, Fluo-4 calcium (AID 434937); assay type: functional

Sequence of Peroxisome proliferator-activated receptor gamma/Nuclear receptor coactivator 1 (P37231 whole entry): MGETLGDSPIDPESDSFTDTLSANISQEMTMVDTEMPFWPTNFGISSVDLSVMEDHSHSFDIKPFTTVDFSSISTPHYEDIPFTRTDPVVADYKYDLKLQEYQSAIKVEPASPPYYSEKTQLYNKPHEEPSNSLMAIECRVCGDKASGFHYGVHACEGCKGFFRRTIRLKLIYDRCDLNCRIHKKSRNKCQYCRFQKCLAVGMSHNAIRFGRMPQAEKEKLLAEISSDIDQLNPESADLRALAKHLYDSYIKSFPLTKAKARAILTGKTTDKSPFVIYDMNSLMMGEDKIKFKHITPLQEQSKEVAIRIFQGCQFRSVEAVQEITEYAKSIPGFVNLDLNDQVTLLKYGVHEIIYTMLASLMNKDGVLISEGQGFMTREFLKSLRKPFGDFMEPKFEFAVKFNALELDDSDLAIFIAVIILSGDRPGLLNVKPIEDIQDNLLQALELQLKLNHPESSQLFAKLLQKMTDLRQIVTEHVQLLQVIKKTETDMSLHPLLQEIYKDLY
Sequence of Peroxisome proliferator-activated receptor gamma/Nuclear receptor coactivator 1 (Q15788 whole entry, further chain): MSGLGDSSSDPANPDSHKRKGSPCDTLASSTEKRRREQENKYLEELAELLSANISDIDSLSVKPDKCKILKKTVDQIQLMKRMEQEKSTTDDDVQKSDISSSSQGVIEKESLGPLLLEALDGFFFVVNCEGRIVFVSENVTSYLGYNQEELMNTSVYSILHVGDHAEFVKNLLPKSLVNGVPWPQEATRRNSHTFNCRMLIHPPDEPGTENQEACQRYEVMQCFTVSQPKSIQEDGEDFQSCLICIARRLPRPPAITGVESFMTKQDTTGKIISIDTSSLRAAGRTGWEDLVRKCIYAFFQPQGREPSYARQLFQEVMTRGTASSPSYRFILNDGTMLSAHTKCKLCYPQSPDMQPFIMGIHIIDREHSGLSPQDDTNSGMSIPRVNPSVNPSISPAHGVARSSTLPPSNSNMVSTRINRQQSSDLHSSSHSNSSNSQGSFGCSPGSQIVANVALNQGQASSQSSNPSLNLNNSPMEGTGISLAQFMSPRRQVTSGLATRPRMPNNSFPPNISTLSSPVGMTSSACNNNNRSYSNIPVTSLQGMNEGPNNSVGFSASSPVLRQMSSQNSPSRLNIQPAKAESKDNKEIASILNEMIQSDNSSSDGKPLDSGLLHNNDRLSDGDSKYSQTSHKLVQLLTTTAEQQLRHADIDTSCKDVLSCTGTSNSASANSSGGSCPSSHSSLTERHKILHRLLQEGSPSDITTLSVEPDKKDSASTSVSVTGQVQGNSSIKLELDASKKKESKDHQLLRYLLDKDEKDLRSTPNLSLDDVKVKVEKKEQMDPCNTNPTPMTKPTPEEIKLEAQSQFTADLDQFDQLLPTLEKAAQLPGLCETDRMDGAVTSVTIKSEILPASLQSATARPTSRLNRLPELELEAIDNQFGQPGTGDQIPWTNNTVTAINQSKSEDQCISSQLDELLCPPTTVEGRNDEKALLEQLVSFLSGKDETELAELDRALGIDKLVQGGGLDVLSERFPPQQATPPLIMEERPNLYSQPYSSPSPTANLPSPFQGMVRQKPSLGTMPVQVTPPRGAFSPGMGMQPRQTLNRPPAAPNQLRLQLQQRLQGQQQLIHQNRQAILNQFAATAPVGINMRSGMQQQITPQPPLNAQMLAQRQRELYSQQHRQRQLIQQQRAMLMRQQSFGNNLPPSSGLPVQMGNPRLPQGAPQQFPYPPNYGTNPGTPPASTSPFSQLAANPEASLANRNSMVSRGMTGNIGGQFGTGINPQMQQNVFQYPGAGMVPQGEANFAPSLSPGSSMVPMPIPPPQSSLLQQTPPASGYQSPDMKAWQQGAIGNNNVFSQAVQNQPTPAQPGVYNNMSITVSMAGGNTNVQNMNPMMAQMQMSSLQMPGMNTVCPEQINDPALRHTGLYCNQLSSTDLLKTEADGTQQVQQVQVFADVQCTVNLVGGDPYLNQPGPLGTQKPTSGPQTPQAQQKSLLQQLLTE
Sequence of Peroxisome proliferator-activated receptor gamma/Nuclear receptor coactivator 2 (P37231 whole entry): as the sequence (P37231 whole entry) above
Sequence of Peroxisome proliferator-activated receptor gamma/Nuclear receptor coactivator 2 (Q15596 whole entry, further chain): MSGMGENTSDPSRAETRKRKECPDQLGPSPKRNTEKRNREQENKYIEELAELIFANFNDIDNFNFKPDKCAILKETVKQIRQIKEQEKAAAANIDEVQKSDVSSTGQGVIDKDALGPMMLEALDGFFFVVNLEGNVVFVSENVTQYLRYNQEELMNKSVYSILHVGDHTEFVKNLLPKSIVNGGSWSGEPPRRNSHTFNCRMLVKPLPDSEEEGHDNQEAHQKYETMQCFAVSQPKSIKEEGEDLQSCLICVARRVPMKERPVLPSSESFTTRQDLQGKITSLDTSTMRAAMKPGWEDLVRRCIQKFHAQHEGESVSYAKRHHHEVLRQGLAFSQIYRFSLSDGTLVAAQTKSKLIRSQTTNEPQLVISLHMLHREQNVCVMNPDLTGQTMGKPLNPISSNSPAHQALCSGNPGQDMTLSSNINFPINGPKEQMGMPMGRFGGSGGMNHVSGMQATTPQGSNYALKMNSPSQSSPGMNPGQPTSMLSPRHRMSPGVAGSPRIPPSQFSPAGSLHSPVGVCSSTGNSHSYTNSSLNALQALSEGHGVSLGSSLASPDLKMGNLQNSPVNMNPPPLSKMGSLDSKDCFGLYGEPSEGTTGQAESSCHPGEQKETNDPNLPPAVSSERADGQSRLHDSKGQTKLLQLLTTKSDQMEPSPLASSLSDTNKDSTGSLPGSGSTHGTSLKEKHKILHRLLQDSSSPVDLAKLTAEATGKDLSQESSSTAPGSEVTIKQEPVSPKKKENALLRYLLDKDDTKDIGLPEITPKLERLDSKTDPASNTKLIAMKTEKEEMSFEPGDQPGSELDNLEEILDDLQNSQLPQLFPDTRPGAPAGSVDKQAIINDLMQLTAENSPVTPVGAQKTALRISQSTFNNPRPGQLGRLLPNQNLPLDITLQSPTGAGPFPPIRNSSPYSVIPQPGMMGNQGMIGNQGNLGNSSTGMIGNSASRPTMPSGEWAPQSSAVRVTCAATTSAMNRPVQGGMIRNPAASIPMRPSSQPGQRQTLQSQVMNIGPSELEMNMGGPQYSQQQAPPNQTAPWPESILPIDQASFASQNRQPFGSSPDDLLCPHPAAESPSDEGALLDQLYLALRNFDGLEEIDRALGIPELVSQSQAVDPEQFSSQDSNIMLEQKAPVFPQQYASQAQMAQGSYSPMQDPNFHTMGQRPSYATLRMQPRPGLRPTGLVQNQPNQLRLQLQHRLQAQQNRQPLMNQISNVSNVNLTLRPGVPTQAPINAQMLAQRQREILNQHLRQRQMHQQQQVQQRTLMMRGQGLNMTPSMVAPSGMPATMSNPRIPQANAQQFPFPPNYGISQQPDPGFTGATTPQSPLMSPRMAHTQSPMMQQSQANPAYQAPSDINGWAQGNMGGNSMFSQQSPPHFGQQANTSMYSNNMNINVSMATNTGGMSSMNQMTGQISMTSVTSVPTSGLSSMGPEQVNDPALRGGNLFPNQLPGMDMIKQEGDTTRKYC

Cc1cc(-c2ccc(C(C)C)c(S(=O)(=O)N3CCN(c4ccccc4)CC3)c2)on1
IC50 [1]: > 80 µM (inactive)

COc1cc(-n2c(=S)[nH]c3ccc(C)cc3c2=O)c(Cl)cc1Cl
EC50 [2]: > 79.4 µM (inactive) | EC50 [3]: > 79.4 µM (not active) | EC50 [4]: > 79.4 µM (not active)

Cn1c(=S)[nH]c2scc(-c3cccs3)c2c1=O
EC50 [5]: 145 µM (inconclusive) | EC50 [2]: 10.5 µM (inactive) | EC50 [3]: > 79.4 µM (not active) | EC50 [6]: 0.361 µM (active) | EC50 [4]: 11.4 µM (not active)

COc1ccc(OC)c(Nc2cc(C)nc3ccc(C)cc23)c1
EC50 [7]: > 120 µM (not active) | EC50 (BJ [8]): 11.7 µM (active) | EC50 [9]: 44.2 µM (active) | EC50 [10]: 6.31 µM (active) | EC50 (BJ [11]): 12.3 µM (active) | EC50 (BJ [12]): 18.8 µM (active) | EC50 [13]: 9.69 µM (active) | EC50 [14]: 5.96 µM (active)

COc1ccc2nc(NS(=O)(=O)c3ccc(NC(C)=O)cc3)sc2c1
EC50 [14]: 3.35 µM (active) | EC50 [15]: 3.76 µM (active)

CCCc1cc(O)nc(SCC(=O)Nc2sc3c(c2C#N)CCCC3)n1
EC50 [14]: 4.73 µM (active)

Cc1cc(NCc2ccccc2)nc(N2CCOCC2)n1
EC50 [14]: 4.73 µM (active)

CCOC(=O)C(C)Sc1nc2c(c(=O)[nH]c(=O)n2C)n1Cc1ccc(Cl)cc1 (stereo not given)
EC50 [14]: 0.749 µM (active)

C=CCSC1=Nc2cc(OC)c(OC)cc2C2=NC(=O)CN12
EC50 [2]: > 79.4 µM (inactive) | EC50 [3]: > 79.4 µM (not active) | EC50 [4]: > 79.4 µM (not active)
